Reference: US20230203096A1, “EPHA4 TARGETING COMPOUNDS AND METHODS OF USE THEREOF” (priority 2020, published 2023)
“Also recorded” adds a separate entry of the source. Where two headings read alike, the source gives them in different places. Square brackets hold non-standard residues; d marks the D form. Peptide text beside a SMILES is read from it. * marks the point of attachment. Cyclohexanoyl(1S,3S-3-NH2) = N[C@H]1CCC[C@H](C(=O)*)C1; Trp(5-OH) = N[C@@H](Cc1c[nH]c2ccc(O)cc12)C(=O)O; NH(4-morpholinophenyl) = c1cc(N2CCOCC2)ccc1N*; Bip = N[C@@H](Cc1ccc(-c2ccccc2)cc1)C(=O)O; hArg = N=C(N)NCCCC[C@H](N)C(=O)O

Experiments:
EphA3-LBD Chimera = EphA3-LBD Chimera (Homo sapiens, UniProt P54764, C204A/E77D/G52H/I159L/I59G/M164L/M60V/R37K/V157M); assay: Isothermal titration calorimetry (ITC) against EphA3-LBD chimera; conditions: listed as 150D4
Experimental: (§2) Isothermal titration calorimetry (ITC) measurements were performed using the Affinity ITC Autosampler from TA Instruments (New Castle, Del.). The titrations were performed in a reverse fashion by titrating the protein into the ligand solution. […] The injections were made at 200 s or 400 s intervals with a stirring speed of 75 rpm. All the solutions were kept in the autosampler at 4° C. The analysis of the thermodynamics signatures and for dissociation constant determination was performed by the NanoAnalyze software (TA Instruments, New Castle, Del.) and subsequently exported into Microsoft Excel.

EphA4-LBD and ephrinA5 = biological target: T1, EphA4-LBD and ephrinA5 (Homo sapiens, UniProt P54764, C204A); assay: ephrinA5 displacement by 2D [13C,1H] correlation NMR; assay type: binding; conditions: ^1H] correlation spectra
T1 construct: His tag (N); made in house; host or cells: E. coli Rosetta-Gami B(DE3) for EphA4-LBD; ephrin-A5 purchased from Sino Biological US Inc (catalogue number not given)
Experimental: NMR spectra were acquired on Bruker Avance III 700 MHz spectrometer equipped with a TCI cryoprobe. All NMR data were processed and analyzed using TOPSPIN 3.6.1 (Bruker, Billerica, Mass., USA). 2D-[^13C,^1H]-HSQC experiments were acquired with 20 μM proteins using 8 scans with 2,048 and 256 complex data points in the ^1H and […] dimensions, respectively, at 298 K. For the 150D4 NMR titrations in FIG. 8 2D-[^13C,^1H]-HSQC experiments were acquired using 16 scans per increment, and for ephrinA5 binding studies (FIG. 8) with 10 μM protein, using 32 scans per increment.

EphA4 = EphA4 (Mus musculus, UniProt Q03137); assay: EphA4 phosphorylation in primary spinal cord motor neurons (IP/western blot); conditions: 1 μM or 10 μM, 30 min
[1] = In vivo pharmacokinetics and brain exposure; conditions: mice; for tissue level at time at 0.5 h / level at 0.5 h / tissue level at time at 24 h / level at 24 h / level at 1 h: mouse; for tissue level at time at 0.5 h / tissue level at time at 24 h: read-out: Amount of compound per mg of wet brain tissue
Aqueous solubility = assay type: physicochemical
[2] = biological target: T2, recombinant EphA4 ligand binding domain (Homo sapiens, UniProt P54764, C204A); assay: Isothermal titration calorimetry (ITC) against EphA4-LBD; conditions: ITC, EphA4-LBD
T2 construct: His tag (N); made in house; host or cells: E. coli Rosetta-Gami B(DE3), pET15b
Experimental: (§1) Peptides were synthesized by using standard solid-phase synthesis protocol, using the BAL resin as anchoring for the C-terminal amines. Isothermal Titration Calorimetry (ITC) measurements were performed in a reverse fashion by titrating the protein into the ligand solution. Solution nuclear magnetic resonance (NMR) experiments were conducted on a 700 MHz Bruker Avance spectrometer equipped with a TCI cryoprobe. Each protein sample was dissolved into an NMR tube at a final concentration of 20 μM (1% DMSO-d6) in the presence of 20 μM of each compound.
The fragments were transformed into Rosetta-Gami B(DE3) competent cells and grown in LB medium at 37° C. with 100 μg/mL of ampicillin until reaching an OD600 of 0.6-0.7 followed by induction with 0.4 mM IPTG overnight at 20° C. Bacteria were then collected by centrifugation and lysed by sonication at 4° C. […] EphA4 LBD with ^13C^ε/^1H^ε-Met labeled was expressed like previously described but adding a suspension of 100 mg of ^13C^ε/^1H^ε-Methionine in 1 mL of DMSO per liter of LB medium, 10 minutes before induction. […] Transformation, expression, and purification of EphA3-LBD chimera was performed as described above for EphA4-LBD.
Isothermal titration calorimetry (ITC) measurements were performed using the Affinity ITC Autosampler from TA Instruments (New Castle, Del.). The titrations were performed in a reverse fashion by titrating the protein into the ligand solution. […] The syringe was filled with a 100 μM solution of EphA4-LBD, EphA3-LBD Chimera, or EphA2-LBD, and 20 injections of 2.5 μL each were performed into the cell containing a 20 μM solution of the compounds. The injections were made at 200 s or 400 s intervals with a stirring speed of 75 rpm. All the solutions were kept in the autosampler at 4° C. The analysis of the thermodynamics signatures and for dissociation constant determination was performed by the NanoAnalyze software (TA Instruments, New Castle, Del.) and subsequently exported into Microsoft Excel.

[3] = biological target: T3, ^13C^ε-Met-labeled EphA4-LBD (Homo sapiens, UniProt P54764, C204A); assay: 2D [13C,1H] HSQC NMR chemical shift perturbation of Met resonances; assay type: binding
T3 construct: His tag (N); made in house; host or cells: E. coli Rosetta-Gami B(DE3), pET15b
Experimental: as §1, with “Each protein sample was dissolved into an NMR tube at a final concentration of 20 μM (1% DMSO-d6) in the presence of 20 μM of each compound.” left out
2D [^13C,^1H] correlation NMR spectra measured with such protein targets, collected in absence or presence of test ligands can be used to monitor ligand binding and make, albeit qualitative, determinations on possible conformational changes induced by test ligands on the protein target. […] In targeting EphA4, an important aspect regarding the activity of its ligands is whether these agents could be predicted to work as antagonists or agonists.
NMR spectra were acquired on Bruker Avance III 700 MHz spectrometer equipped with a TCI cryoprobe. All NMR data were processed and analyzed using TOPSPIN 3.6.1 (Bruker, Billerica, Mass., USA).
Chemical shift changes (A) in the 2D [^13C, ^1H] spectra were calculated as weight average perturbations observed in the ^1H and ^13C dimensions using the following Equation: […]

EphA2-LBD = EphA2-LBD (Homo sapiens, UniProt P29317); assay: Isothermal titration calorimetry (ITC) against EphA2-LBD
Experimental: as §2

[4] = test ligands at 40 μM, EphA4-LDB at 20 μM, Table 8

T2 sequence (P54764 29-209 C204A): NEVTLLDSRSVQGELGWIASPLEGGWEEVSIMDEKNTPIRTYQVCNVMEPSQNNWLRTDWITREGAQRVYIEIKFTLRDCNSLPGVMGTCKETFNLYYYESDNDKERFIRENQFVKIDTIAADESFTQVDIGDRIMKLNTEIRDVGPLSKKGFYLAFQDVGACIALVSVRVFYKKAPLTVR
T3 sequence (P54764 29-209 C204A): as above
Sequence of EphA3-LBD Chimera (P54764 29-209 R37K/G52H/I59G/M60V/E77D/V157M/I159L/M164L/C204A): as the sequence (P54764 29-209 C204A) above, with R9K, G24H, I31G, M32V, E49D, V129M, I131L, M136L counted along it
T1 sequence (P54764 29-209 C204A): as the sequence (P54764 29-209 C204A) above
Sequence of EphA2-LBD (P29317 27-200): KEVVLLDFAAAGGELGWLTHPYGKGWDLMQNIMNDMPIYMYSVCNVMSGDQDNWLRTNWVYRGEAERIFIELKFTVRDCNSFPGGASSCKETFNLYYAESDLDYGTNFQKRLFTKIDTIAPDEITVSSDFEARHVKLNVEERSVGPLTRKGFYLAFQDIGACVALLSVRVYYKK
Sequence of EphA4 (Q03137 20-986): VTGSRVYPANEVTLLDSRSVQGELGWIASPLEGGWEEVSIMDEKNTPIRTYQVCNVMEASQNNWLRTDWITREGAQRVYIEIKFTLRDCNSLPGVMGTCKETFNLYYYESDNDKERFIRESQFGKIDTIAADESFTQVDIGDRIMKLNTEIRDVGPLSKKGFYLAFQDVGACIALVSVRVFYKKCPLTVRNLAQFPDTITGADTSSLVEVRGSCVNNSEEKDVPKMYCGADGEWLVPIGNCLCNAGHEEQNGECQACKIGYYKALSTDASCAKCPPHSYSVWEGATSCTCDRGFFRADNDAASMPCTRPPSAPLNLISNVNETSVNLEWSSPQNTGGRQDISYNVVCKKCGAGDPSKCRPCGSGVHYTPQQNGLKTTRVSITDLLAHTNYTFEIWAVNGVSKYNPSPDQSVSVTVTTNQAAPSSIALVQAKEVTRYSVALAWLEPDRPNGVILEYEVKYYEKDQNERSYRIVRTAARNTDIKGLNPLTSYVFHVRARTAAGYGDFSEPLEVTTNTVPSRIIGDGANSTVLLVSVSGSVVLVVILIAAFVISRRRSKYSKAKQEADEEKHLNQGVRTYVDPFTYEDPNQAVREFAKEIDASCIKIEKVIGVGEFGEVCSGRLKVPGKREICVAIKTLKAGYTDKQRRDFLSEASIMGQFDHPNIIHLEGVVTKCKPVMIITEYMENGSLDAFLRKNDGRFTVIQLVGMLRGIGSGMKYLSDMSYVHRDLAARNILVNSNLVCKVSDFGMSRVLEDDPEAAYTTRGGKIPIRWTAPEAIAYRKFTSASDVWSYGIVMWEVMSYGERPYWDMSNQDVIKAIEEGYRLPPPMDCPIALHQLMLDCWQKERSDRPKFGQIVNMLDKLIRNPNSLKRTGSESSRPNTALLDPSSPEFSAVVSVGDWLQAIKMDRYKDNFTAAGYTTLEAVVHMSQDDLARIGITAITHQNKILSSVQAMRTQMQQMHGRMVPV

N=C(N)NCCCC[C@H](NC(=O)[C@H](Cc1ccc(-c2ccccc2)cc1)NC(=O)[C@H](Cc1c[nH]c2ccc(O)cc12)NC(=O)[C@H]1CCC[C@H](N)C1)C(=O)NCC(=O)Nc1ccc(N2CCOCC2)cc1 [Compound 8, (1S,3S)—N—((S)-1-(((S)-3-([1,1′-biphenyl]-4-yl)-1-(((S)-6-guanidino-1-((2-((4-morpholinophenyl)amino)-2-oxoethyl)amino)-1-oxohexan-2-yl)amino)-1-oxopropan-2-yl)amino)-3-(5-hydroxy-1H-indol-3-yl)-1-oxopropan-2-yl)-3-aminocyclohexane-1-carboxamide] ({Cyclohexanoyl(1S,3S-3-NH2)}-[Trp(5-OH)][Bip][hArg]G-{NH(4-morpholinophenyl)})
binding to EphA3 (in words) (EphA3-LBD Chimera): limited binding; also recorded: markedly reduced affinity
displacement of ephrinA5 binding to EphA4-LBD (EphA4-LBD and ephrinA5): efficiently displaces the binding of ephrinA5
EphA4 receptor phosphorylation (pEphA4/total EphA4) (EphA4): more significantly active than others
Total extracted brain compound ([1]; 10 mg/kg IV, 30 min): 205.6 ng
Total extracted brain compound ([1]; 10 mg/kg IV, 24 hr): 60 ng
Total extracted brain compound ([1]; 50 mg/Kg IP, 30 min): 185 ng
Total extracted brain compound ([1]; 50 mg/Kg IP, 24 hr): 34.7 ng
tissue level at time at 0.5 h ([1]; brain, 10 mg/kg IV, 30 min): 4730 ng/g
level at 0.5 h ([1]; brain, 10 mg/kg IV, 30 min, read-out: Brain concentration): 189 ng/mL
tissue level at time at 24 h ([1]; brain, 10 mg/kg IV, 24 hr): 1360 ng/g
level at 24 h ([1]; brain, 10 mg/kg IV, 24 hr, read-out: Brain concentration): 54 ng/mL
tissue level at time at 0.5 h ([1]; brain, 50 mg/Kg IP, 30 min): 4600 ng/g
level at 1 h ([1]; brain, 50 mg/Kg IP, read-out: Brain concentration): 184 ng/mL
tissue level at time at 24 h ([1]; brain, 50 mg/Kg IP, 24 hr): 1100 ng/g
level at 24 h ([1]; brain, 50 mg/Kg IP, 24 hr, read-out: Brain concentration): 45.5 ng/mL
level at 0.5 h ([1]; plasma, 10 mg/kg IV, 30 min, read-out: Plasma drug concentration): 484 ng/mL
level at 24 h ([1]; plasma, 10 mg/kg IV, 24 hr, read-out: Plasma drug concentration): 14.2 ng/mL
level at 1 h ([1]; plasma, 50 mg/Kg IP, read-out: Plasma drug concentration): 7740 ng/mL
level at 24 h ([1]; plasma, 50 mg/Kg IP, 24 hr, read-out: Plasma drug concentration): 45 ng/mL
Aqueous Solubility (Aqueous solubility): >50 mM
-TΔS [2]: -0.88 kcal/mol
AH [2]: -8.49 kcal/mol
Kd ([2]; read-out: Kd (nM)- ITC): 113 nM
chemical shift perturbation of Met 115 (in words) [3]: no significant perturbations
chemical shift changes of Met 60 and Met 164 (in words) ([3]; FIG. 8B): large chemical shift changes
Δδ ^13C^ϵ/^1H^ϵ Met 164 ([3]; protein 20 μM, 20 μM of each compound): ++++ (++++ >0.25 ppm)
koff ([3]; read-out: estimated upper limit for the off rate for the complex koff): < 60 s⁻¹
Δδ Met 60 [3, 4]: ++ (0.1 ppm < ++ <0.2 ppm)
Δδ Met 115 [3, 4]: + (0< + <0.1 ppm)
Δδ Met 164 [3, 4]: ++++ (++++ >0.25 ppm)
binding to EphA2 (in words) (EphA2-LBD): limited binding
